Measured values taken from patent US20240182531A1, “KV1.3 Blockers” (priority 2021, published 2024).
Where a SMILES comes first, the peptide text is derived from it. Bridges are numbered along the chain shown (N, C = ends). [ ]: non-standard residue; d: D form. Agp = N=C(N)NC[C@H](N)C(=O)O; Nle = CCCC[C@H](N)C(=O)O; Dab = NCC[C@H](N)C(=O)O

Legend:
human Kv1.6 = target: T1, human Kv1.6 (Homo sapiens, UniProt P17658); test: cell-based; conditions: for IC50: CHO cells, QPatch whole-cell, read-out: Potency IC50 Kv1.6; for Selectivity ratio Kv1.6/Kv1.3: ratio of patch clamp IC50 values
T1 construct: expressed in transfected cells; host or cells: CHO
T1 sequence (P17658 whole entry): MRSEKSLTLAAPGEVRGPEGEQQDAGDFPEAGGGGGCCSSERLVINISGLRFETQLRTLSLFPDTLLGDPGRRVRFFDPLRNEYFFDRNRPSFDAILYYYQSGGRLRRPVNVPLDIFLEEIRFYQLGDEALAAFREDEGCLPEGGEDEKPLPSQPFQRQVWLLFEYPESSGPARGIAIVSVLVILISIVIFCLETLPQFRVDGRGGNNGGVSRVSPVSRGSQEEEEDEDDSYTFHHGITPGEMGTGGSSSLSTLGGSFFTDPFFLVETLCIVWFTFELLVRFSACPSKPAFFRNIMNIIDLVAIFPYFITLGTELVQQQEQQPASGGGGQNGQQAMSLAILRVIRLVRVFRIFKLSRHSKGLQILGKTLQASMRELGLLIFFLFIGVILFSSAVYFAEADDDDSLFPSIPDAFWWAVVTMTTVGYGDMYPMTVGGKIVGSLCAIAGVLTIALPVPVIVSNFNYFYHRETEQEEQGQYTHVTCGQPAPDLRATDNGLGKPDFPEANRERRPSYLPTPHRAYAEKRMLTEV

human Kv1.1 = target: T2, human Kv1.1 (Homo sapiens, UniProt Q09470); test: cell-based; conditions: for IC50: CHO cells, QPatch whole-cell, read-out: Potency IC50 Kv1.1; for Selectivity ratio Kv1.1/Kv1.3: ratio of patch clamp IC50 values
T2 construct: expressed in transfected cells; host or cells: CHO
T2 sequence (Q09470 whole entry): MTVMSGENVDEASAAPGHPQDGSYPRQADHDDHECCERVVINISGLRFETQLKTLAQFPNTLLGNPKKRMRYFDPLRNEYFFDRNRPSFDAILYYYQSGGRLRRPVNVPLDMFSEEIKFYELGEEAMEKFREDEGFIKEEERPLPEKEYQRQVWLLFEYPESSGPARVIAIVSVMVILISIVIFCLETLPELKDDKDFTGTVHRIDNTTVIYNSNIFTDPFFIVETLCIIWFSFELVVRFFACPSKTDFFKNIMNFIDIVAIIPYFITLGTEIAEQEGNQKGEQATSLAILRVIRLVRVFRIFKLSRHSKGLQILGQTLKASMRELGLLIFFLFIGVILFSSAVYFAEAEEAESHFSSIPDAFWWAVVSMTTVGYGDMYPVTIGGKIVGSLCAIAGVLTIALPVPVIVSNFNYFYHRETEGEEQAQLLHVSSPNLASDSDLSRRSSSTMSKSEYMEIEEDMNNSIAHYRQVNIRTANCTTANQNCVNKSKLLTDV

human Kv1.3 = target: T3, human Kv1.3 (Homo sapiens, UniProt P22001); test: cell-based; conditions: CHO cells, QPatch whole-cell; read-out: Potency IC50 Kv1.3
T3 construct: expressed in transfected cells; host or cells: CHO
T3 sequence (P22001 whole entry): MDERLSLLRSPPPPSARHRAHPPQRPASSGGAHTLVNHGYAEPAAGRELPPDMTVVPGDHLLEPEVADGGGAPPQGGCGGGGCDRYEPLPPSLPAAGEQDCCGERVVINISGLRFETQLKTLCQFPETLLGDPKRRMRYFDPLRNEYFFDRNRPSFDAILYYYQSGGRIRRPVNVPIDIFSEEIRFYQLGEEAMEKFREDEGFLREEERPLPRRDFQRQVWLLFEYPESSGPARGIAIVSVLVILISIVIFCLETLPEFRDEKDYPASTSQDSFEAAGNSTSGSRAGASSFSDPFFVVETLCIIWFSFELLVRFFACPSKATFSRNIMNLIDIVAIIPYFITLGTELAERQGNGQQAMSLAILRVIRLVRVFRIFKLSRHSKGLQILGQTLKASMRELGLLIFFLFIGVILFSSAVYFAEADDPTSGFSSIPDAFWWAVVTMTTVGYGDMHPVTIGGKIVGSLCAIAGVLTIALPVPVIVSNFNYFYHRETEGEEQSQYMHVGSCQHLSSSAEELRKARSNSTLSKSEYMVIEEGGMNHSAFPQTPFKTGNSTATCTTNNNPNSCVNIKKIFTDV

human Kv1.2 = target: T4, human Kv1.2 (Homo sapiens, UniProt P16389); test: cell-based; conditions: for IC50: CHO cells, QPatch whole-cell, read-out: Potency IC50 Kv1.2; for Selectivity ratio Kv1.2/Kv1.3: ratio of patch clamp IC50 values
T4 construct: expressed in transfected cells; host or cells: CHO
T4 sequence (P16389 whole entry): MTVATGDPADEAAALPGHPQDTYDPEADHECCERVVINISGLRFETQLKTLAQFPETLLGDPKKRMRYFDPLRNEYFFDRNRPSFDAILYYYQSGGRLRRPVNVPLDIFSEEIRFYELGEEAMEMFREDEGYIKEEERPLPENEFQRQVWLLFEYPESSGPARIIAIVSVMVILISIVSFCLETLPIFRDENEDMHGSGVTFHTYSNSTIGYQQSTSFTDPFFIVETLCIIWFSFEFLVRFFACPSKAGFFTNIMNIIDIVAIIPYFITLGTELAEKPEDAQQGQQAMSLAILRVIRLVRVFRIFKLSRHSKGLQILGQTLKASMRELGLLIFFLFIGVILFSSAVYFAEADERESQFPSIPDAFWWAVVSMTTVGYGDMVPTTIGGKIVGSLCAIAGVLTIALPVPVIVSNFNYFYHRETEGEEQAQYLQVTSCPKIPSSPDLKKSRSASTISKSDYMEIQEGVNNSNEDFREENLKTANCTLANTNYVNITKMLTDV

[1] = Pharmacokinetic characterisation after single s.c. injection in Sprague Dawley rats; conditions: male, rat, plasma, sc, 100 nmol/kg
Method: Sprague Dawley (males with a body weight of approximately 250-350 g) were given a single subcutaneous (s.c.) injection of each peptide to be tested.
Following s.c. administration of the selected compounds (dose 100 nmol/kg, dosing volume either 2 mL/kg), blood samples were drawn at 5 min, 15 min, 30 min, 60 min, 2 h, 3 h, 4 h, 6 h, 8 h post-dose. At each sampling time point, samples from the rats were drawn by sublingual bleeding. After last sampling the rats were sacrificed by O2/CO2 anaesthesia. The dosing vehicle was 10 mM phosphate, 0.8% NaCl, 0.05% Polysorbate 20 (pH 6.0).
Plasma samples were analyzed after solid phase extraction (SPE) by liquid chromatography mass spectrometry (LC-MS/MS). Mean plasma concentrations were used for calculation of the pharmacokinetic parameters using the non-compartmental approach in Phoenix WinNonlin 6.4 or a later version. Plasma terminal elimination half-life (T½) was determined as In(2)/λz where λz is the magnitude of the slope of the log linear regression of the log concentration versus time profile during the terminal phase. AUCinf is the area under the plasma concentration—time curve extrapolated to infinity (AUCinf=AUClast+Clast/λz, where Clast is the last observed plasma concentration). Cmax is the maximum observed concentration, occurring at Tmax.

[2] = target: T5, human Kv1.3 voltage-gated K+ channel (Homo sapiens, UniProt P22001); test: Kv1.3 blocker activity in FLIPR thallium assay; type: cell-based
T5 construct: host or cells: CHO-DUKX
T5 sequence (P22001 whole entry): as the sequence (P22001 whole entry) above
Method in brief: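 CHO-DUKX cells stably expressing Kv1.3 were pre-incubated with compound for 30 min at 37° C in buffer with 0.02% w/v casein. Depolarization used final stimulus buffer with 5 mM K2SO4 and 1 mM Tl2SO4. Thallium-flux fluorescence was read at maximum response at 50 s, 37° C, and IC50 derived.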

[3] = Pharmacokinetic characterisation according to example 6 of PCT/EP2020/076187; conditions: in vivo; dose 70 nmol/kg
Method: The pharmacokinetic characterization of compound 14 were performed according to the method described in example 6 of international patent application PCT/EP2020/076187.

Rat whole blood = Rat whole blood (Rattus norvegicus, UniProt P15384); type: cell-based; conditions: IL-17A release, thapsigargin, 24 Hr, at least 2 replicates
Sequence of Rat whole blood (P15384 whole entry): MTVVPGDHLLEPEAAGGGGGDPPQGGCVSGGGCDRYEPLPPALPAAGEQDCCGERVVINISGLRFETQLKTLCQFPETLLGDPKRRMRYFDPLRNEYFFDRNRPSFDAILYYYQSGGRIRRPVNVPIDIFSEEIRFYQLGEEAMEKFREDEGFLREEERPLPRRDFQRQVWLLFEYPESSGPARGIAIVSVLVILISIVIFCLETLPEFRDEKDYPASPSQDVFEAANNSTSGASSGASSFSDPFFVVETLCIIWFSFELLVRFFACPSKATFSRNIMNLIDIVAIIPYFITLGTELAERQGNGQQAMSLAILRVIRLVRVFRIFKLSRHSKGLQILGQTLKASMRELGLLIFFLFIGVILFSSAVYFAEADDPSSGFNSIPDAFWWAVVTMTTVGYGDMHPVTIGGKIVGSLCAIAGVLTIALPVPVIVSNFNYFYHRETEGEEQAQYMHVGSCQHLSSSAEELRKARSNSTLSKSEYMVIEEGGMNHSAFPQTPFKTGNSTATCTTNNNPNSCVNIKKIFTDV

[4] = target: human Kv1.6 potassium ion channel (human) (UniProt P17658); test: cell-based or functional assay
Sequence of human Kv1.6 potassium ion channel (human) (P17658 whole entry): as the sequence (P17658 whole entry) above

[5] = target: human Kv1.3 (potassium voltage-gated channel subfamily A member 3) (human) (UniProt P22001); test: cell-based or functional assay
Sequence of human Kv1.3 (potassium voltage-gated channel subfamily A member 3) (human) (P22001 whole entry): as the sequence (P22001 whole entry) above

[6] = target: human Kv1.1 potassium ion channel (human) (UniProt Q09470); test: cell-based or functional assay
Sequence of human Kv1.1 potassium ion channel (human) (Q09470 whole entry): as the sequence (Q09470 whole entry) above

[7] = target: human Kv1.2 potassium ion channel (human) (UniProt P16389); test: cell-based or functional assay
Sequence of human Kv1.2 potassium ion channel (human) (P16389 whole entry): as the sequence (P16389 whole entry) above

[8] = target: human Kv1.3 voltage-gated K+ channel (potassium voltage-gated channel subfamily A member 3) (human) (UniProt P22001); test: cell-based or functional assay
Sequence of human Kv1.3 voltage-gated K+ channel (potassium voltage-gated channel subfamily A member 3) (human) (P22001 whole entry): as the sequence (P22001 whole entry) above

CCCC[C@H](NC(=O)[C@@H]1CCCN1)C(=O)N[C@@H](CCC(=O)O)C(=O)N[C@@H](CCCC)C(=O)N[C@@H](CCCNC(=N)N)C(=O)N[C@H]1CSSC[C@@H]2NC(=O)[C@H](CCCCN)NC(=O)CNC(=O)[C@H](Cc3ccccc3)NC(=O)[C@H]([C@@H](C)CC)NC(=O)[C@H](CO)NC(=O)CNC(=O)[C@H]([C@@H](C)CC)NC(=O)[C@H](C)NC(=O)[C@H](C)NC(=O)[C@H](CC(C)C)NC(=O)[C@@H]3CSSC[C@@H](C(=O)N[C@@H](Cc4ccc(O)cc4)C(=O)N4CCC[C@H]4C(=O)N[C@@H](CCCNC(=N)N)C(=O)O)NC(=O)[C@H](CCCCN)NC(=O)[C@H](CSSC[C@H](NC(=O)[C@H](CCC(=O)O)NC(=O)[C@H](C(C)C)NC(=O)[C@H](CO)NC(=O)[C@H](C)NC(=O)[C@H](CCN)NC1=O)C(=O)N[C@@H](CCCCN)C(=O)N[C@@H](CCC(N)=O)C(=O)N[C@@H](CCCCN)C(=O)N3)NC(=O)[C@H](CCCCN)NC(=O)[C@H](CCCCN)NC(=O)[C@H](CC(N)=O)NC(=O)[C@H](CCCC)NC2=O [Cpd No. 1] (H-P[Nle]E[Nle]RC[Dab]ASVECKQKCLAAIGSIFGKC[Nle]NKKCKCYPR-OH; disulfide 6-27, 12-32, 16-34)
IC50 (human Kv1.6): > 3000 nM | Selectivity ratio Kv1.6/Kv1.3 (human Kv1.6): >100000 | IC50 (human Kv1.1): > 3000 nM | Selectivity ratio Kv1.1/Kv1.3 (human Kv1.1): >100000 | IC50 (human Kv1.3): 0.028 nM | IC50 (human Kv1.2): 480 nM | Selectivity ratio Kv1.2/Kv1.3 (human Kv1.2): 17000 | AUC(0-inf) [1]: 0.152 µM·h | Cmax [1]: 90.8 nM | half-life [1]: 1.7 h | IC50 [2]: 0.12 nM

CCCC[C@H](NC(=O)[C@@H]1CCCN1)C(=O)N[C@@H](CCC(=O)O)C(=O)N[C@@H](CCCC)C(=O)N[C@@H](CCCNC(=N)N)C(=O)N[C@H]1CSSC[C@@H]2NC(=O)[C@H](CCCCN)NC(=O)CNC(=O)[C@H](Cc3ccccc3)NC(=O)[C@H]([C@@H](C)CC)NC(=O)[C@H](CO)NC(=O)CNC(=O)[C@H]([C@@H](C)CC)NC(=O)[C@H](C)NC(=O)[C@H](C)NC(=O)[C@H](CC(C)C)NC(=O)[C@@H]3CSSC[C@@H](C(=O)N[C@@H](Cc4ccc(O)cc4)C(=O)N4CCC[C@H]4C(=O)N[C@@H](CCCNC(=N)N)C(=O)O)NC(=O)[C@H](CCCCN)NC(=O)[C@H](CSSC[C@H](NC(=O)[C@H](CCC(=O)O)NC(=O)[C@H](C(C)C)NC(=O)[C@H](CO)NC(=O)[C@H](C)NC(=O)[C@H](CNC(=N)N)NC1=O)C(=O)N[C@@H](CCCCN)C(=O)N[C@@H](CCC(N)=O)C(=O)N[C@@H](CCCCN)C(=O)N3)NC(=O)[C@H](CCCCN)NC(=O)[C@H](CCCCN)NC(=O)[C@H](CC(N)=O)NC(=O)[C@H](CCCC)NC2=O [Cpd No. 3] (H-P[Nle]E[Nle]RC[Agp]ASVECKQKCLAAIGSIFGKC[Nle]NKKCKCYPR-OH; disulfide 6-27, 12-32, 16-34)
IC50 (human Kv1.6): > 3000 nM | Selectivity ratio Kv1.6/Kv1.3 (human Kv1.6): >46000 | IC50 (human Kv1.1): > 3000 nM | Selectivity ratio Kv1.1/Kv1.3 (human Kv1.1): >46000 | IC50 (human Kv1.3): 0.064 nM | IC50 (human Kv1.2): 380 nM | Selectivity ratio Kv1.2/Kv1.3 (human Kv1.2): 6000 | IC50 [2]: 0.13 nM

CCCC[C@H](NC(=O)[C@@H]1CCCN1)C(=O)N[C@@H](CCC(=O)O)C(=O)N[C@@H](CCCC)C(=O)N[C@@H](CCCNC(=N)N)C(=O)N[C@H]1CSSC[C@@H]2NC(=O)[C@H](CCCCN)NC(=O)CNC(=O)[C@H](Cc3ccccc3)NC(=O)[C@H]([C@@H](C)CC)NC(=O)[C@H](CO)NC(=O)CNC(=O)[C@H]([C@@H](C)CC)NC(=O)[C@H](C)NC(=O)[C@H](C)NC(=O)[C@H](CC(C)C)NC(=O)[C@@H]3CSSC[C@@H](C(=O)N[C@@H](Cc4ccc(O)cc4)C(=O)N4CCC[C@H]4C(=O)N[C@@H](CCCNC(=N)N)C(N)=O)NC(=O)[C@H](CCCCN)NC(=O)[C@H](CSSC[C@H](NC(=O)[C@H](CCC(=O)O)NC(=O)[C@H](C(C)C)NC(=O)[C@H](CO)NC(=O)[C@H](C)NC(=O)[C@H](CO)NC1=O)C(=O)N[C@@H](CCCCN)C(=O)N[C@@H](CCC(N)=O)C(=O)N[C@@H](CCCCN)C(=O)N3)NC(=O)[C@H](CCCCN)NC(=O)[C@H](CCCCN)NC(=O)[C@H](CC(N)=O)NC(=O)[C@H](CCCC)NC2=O [compound 13] (H-P[Nle]E[Nle]RCSASVECKQKCLAAIGSIFGKC[Nle]NKKCKCYPR-NH2; disulfide 6-27, 12-32, 16-34)
AUC(0-inf) [3]: 0.0268 µM·h | Cmax [3]: 16.5 nM | half-life [3]: 1.7 h | Selectivity ratio Kv1.6/Kv1.3 (human Kv1.6): >16200 | IC50 (Rat whole blood): 0.34 nM | Selectivity ratio Kv1.1/Kv1.3 (human Kv1.1): >16200 | Selectivity ratio Kv1.2/Kv1.3 (human Kv1.2): 1689

Moka1 (peptide)
Potency IC50 (nM) Kv1.6 [4]: > 3000 nM | Selectivity Kv1.6/Kv1.3 [4]: > 300 | Potency IC50 (nM) Kv1.3 [5]: 9 nM | Potency IC50 (nM) Kv1.1 [6]: > 3000 nM | Selectivity Kv1.1/Kv1.3 [6]: > 300 | Potency IC50 (nM) Kv1.2 [7]: 275 nM | Selectivity Kv1.2/Kv1.3 [7]: 31

ShK (peptide)
Potency IC50 (nM) Kv1.6 [4]: 0.19 nM | Potency IC50 (nM) Kv1.3 [5]: 0.017 nM | Potency IC50 (nM) Kv1.2 [7]: 11 nM

ShK-186: H-[phosphotyrosyl][8-Amino-3,6-dioxaoctanoyl]…-NH2 (peptide)
IC50 of IL-2 release, anti-CD3 stimulated human PBMCs (Example 5b) [8]: 0.05 nM

Vm24 (peptide)
Potency IC50 (nM) Kv1.6 [4]: 21 nM | Selectivity Kv1.6/Kv1.3 [4]: 139 | Potency IC50 (nM) Kv1.3 [5]: 0.15 nM | Potency IC50 (nM) Kv1.1 [6]: 0.097 nM | Selectivity Kv1.1/Kv1.3 [6]: 0.65 | Potency IC50 (nM) Kv1.2 [7]: 4.7 nM | Selectivity Kv1.2/Kv1.3 [7]: 31
